Results: PubChem BioAssay (NCI)
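Growth conditions: 96-well plates. Treatment: test compound, 48 hours, 5 concentrations. Analysis: linear interpolation between bracketing concentrations; unreached endpoints set to highest concentration. At the TGI there is no net growth.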

How the values were obtained:
Assay in all cases: NCI tumour cell line growth inhibition, 48 h
SN12C renal = system: SN12C renal
SF-539 CNS = system: SF-539 CNS
UO-31 renal = system: UO-31 renal
A498 renal = system: A498 renal
NCI-H522 lung = system: NCI-H522 lung
HT29 colon = system: HT29 colon
OVCAR-4 ovarian = system: OVCAR-4 ovarian
NCI-H226 lung = system: NCI-H226 lung
SNB-19 CNS = system: SNB-19 CNS
786-0 renal = system: 786-0 renal
A549 NSCLC = system: A549 NSCLC
NCI-H460 lung = system: NCI-H460 lung
HCT-116 colon = system: HCT-116 colon
COLO 205 colon = system: COLO 205 colon
UACC-257 melanoma = system: UACC-257 melanoma
MOLT-4 leukemia = system: MOLT-4 leukemia
U251 CNS = system: U251 CNS
SW-620 colon = system: SW-620 colon
HOP-18 NSCLC = system: HOP-18 NSCLC
XF 498 CNS = system: XF 498 CNS
KM20L2 colon = system: KM20L2 colon
UACC-62 melanoma = system: UACC-62 melanoma
M19-MEL melanoma = system: M19-MEL melanoma
SK-MEL-28 melanoma = system: SK-MEL-28 melanoma
M14 melanoma = system: M14 melanoma
SK-MEL-2 melanoma = system: SK-MEL-2 melanoma
ACHN renal = system: ACHN renal
SK-MEL-5 melanoma = system: SK-MEL-5 melanoma
OVCAR-3 ovarian = system: OVCAR-3 ovarian
DMS 273 small cell lung = system: DMS 273 small cell lung
HL-60(TB) leukemia = system: HL-60(TB) leukemia
SR leukemia = system: SR leukemia
KM12 colon = system: KM12 colon
HOP-92 NSCLC = system: HOP-92 NSCLC
HCC-2998 colon = system: HCC-2998 colon
RXF-631 renal = system: RXF-631 renal
K-562 leukemia = system: K-562 leukemia
NCI-H23 lung = system: NCI-H23 lung
EKVX NSCLC = system: EKVX NSCLC
RXF 393 renal = system: RXF 393 renal
OVCAR-5 ovarian = system: OVCAR-5 ovarian
MALME-3M melanoma = system: MALME-3M melanoma
DLD-1 colon = system: DLD-1 colon
CCRF-CEM leukemia = system: CCRF-CEM leukemia
RPMI-8226 leukemia = system: RPMI-8226 leukemia
OVCAR-8 ovarian = system: OVCAR-8 ovarian
TK-10 renal = system: TK-10 renal
SF-295 CNS = system: SF-295 CNS
DMS 114 small cell lung = system: DMS 114 small cell lung
HOP-62 NSCLC = system: HOP-62 NSCLC
SK-OV-3 ovarian = system: SK-OV-3 ovarian
IGROV1 ovarian = system: IGROV1 ovarian
LOX IMVI melanoma = system: LOX IMVI melanoma
SNB-75 CNS = system: SNB-75 CNS
HCT-15 colon = system: HCT-15 colon
SF-268 CNS = system: SF-268 CNS
SNB-78 CNS = system: SNB-78 CNS
CAKI-1 renal = system: CAKI-1 renal
LXFL 529 NSCLC = system: LXFL 529 NSCLC

CCOC(=O)C(C(=O)OCC)S(C)(=O)=O
TGI (SN12C renal): > 100 µM | TGI (SF-539 CNS): > 100 µM | TGI (UO-31 renal): > 100 µM | TGI (A498 renal): > 100 µM | TGI (NCI-H522 lung): > 100 µM | TGI (HT29 colon): > 100 µM | TGI (OVCAR-4 ovarian): > 100 µM | TGI (NCI-H226 lung): > 100 µM | TGI (SNB-19 CNS): > 100 µM | TGI (786-0 renal): > 100 µM | TGI (A549 NSCLC): > 100 µM | TGI (NCI-H460 lung): > 100 µM | TGI (HCT-116 colon): > 100 µM | TGI (COLO 205 colon): > 100 µM | TGI (UACC-257 melanoma): > 100 µM | TGI (MOLT-4 leukemia): > 100 µM | TGI (U251 CNS): > 100 µM | TGI (SW-620 colon): > 100 µM | TGI (HOP-18 NSCLC): > 100 µM | TGI (XF 498 CNS): > 100 µM | TGI (KM20L2 colon): > 100 µM | TGI (UACC-62 melanoma): > 100 µM | TGI (M19-MEL melanoma): > 100 µM | TGI (SK-MEL-28 melanoma): > 100 µM | TGI (M14 melanoma): > 100 µM | TGI (SK-MEL-2 melanoma): > 100 µM | TGI (ACHN renal): > 100 µM | TGI (SK-MEL-5 melanoma): > 100 µM | TGI (OVCAR-3 ovarian): > 100 µM | TGI (DMS 273 small cell lung): > 100 µM | TGI (HL-60(TB) leukemia): > 100 µM | TGI (SR leukemia): > 100 µM | TGI (KM12 colon): > 100 µM | TGI (HOP-92 NSCLC): > 100 µM | TGI (HCC-2998 colon): > 100 µM | TGI (RXF-631 renal): > 100 µM | TGI (K-562 leukemia): > 100 µM | TGI (NCI-H23 lung): > 100 µM | TGI (EKVX NSCLC): > 100 µM | TGI (RXF 393 renal): > 100 µM | TGI (OVCAR-5 ovarian): > 100 µM | TGI (MALME-3M melanoma): > 100 µM | TGI (DLD-1 colon): > 100 µM | TGI (CCRF-CEM leukemia): > 100 µM | TGI (RPMI-8226 leukemia): > 100 µM | TGI (OVCAR-8 ovarian): > 100 µM | TGI (TK-10 renal): > 100 µM | TGI (SF-295 CNS): > 100 µM | TGI (DMS 114 small cell lung): > 100 µM | TGI (HOP-62 NSCLC): > 100 µM | TGI (SK-OV-3 ovarian): > 100 µM | TGI (IGROV1 ovarian): > 100 µM | TGI (LOX IMVI melanoma): > 100 µM

O=C1CS(=O)c2ccccc2N1 (stereo not given)
TGI (SN12C renal): > 100 µM | TGI (SF-539 CNS): > 100 µM | TGI (UO-31 renal): > 100 µM | TGI (A498 renal): > 100 µM | TGI (NCI-H522 lung): > 100 µM | TGI (HT29 colon): > 100 µM | TGI (OVCAR-4 ovarian): > 100 µM | TGI (NCI-H226 lung): > 100 µM | TGI (SNB-75 CNS): > 100 µM | TGI (SNB-19 CNS): > 100 µM | TGI (786-0 renal): > 100 µM | TGI (A549 NSCLC): > 100 µM | TGI (NCI-H460 lung): > 100 µM | TGI (HCT-116 colon): > 100 µM | TGI (COLO 205 colon): > 100 µM | TGI (UACC-257 melanoma): > 100 µM | TGI (MOLT-4 leukemia): > 100 µM | TGI (HCT-15 colon): > 100 µM | TGI (U251 CNS): > 100 µM | TGI (SF-268 CNS): > 100 µM | TGI (HOP-18 NSCLC): > 100 µM | TGI (XF 498 CNS): > 100 µM | TGI (KM20L2 colon): > 100 µM | TGI (SNB-78 CNS): > 100 µM | TGI (UACC-62 melanoma): > 100 µM | TGI (M19-MEL melanoma): > 100 µM | TGI (SK-MEL-28 melanoma): > 100 µM | TGI (M14 melanoma): > 100 µM | TGI (SK-MEL-2 melanoma): > 100 µM | TGI (ACHN renal): > 100 µM | TGI (SK-MEL-5 melanoma): > 100 µM | TGI (OVCAR-3 ovarian): > 100 µM | TGI (DMS 273 small cell lung): 33.9 µM | TGI (HL-60(TB) leukemia): > 100 µM | TGI (SR leukemia): > 100 µM | TGI (KM12 colon): > 100 µM | TGI (HOP-92 NSCLC): > 100 µM | TGI (CAKI-1 renal): > 100 µM | TGI (HCC-2998 colon): > 100 µM | TGI (RXF-631 renal): > 100 µM | TGI (K-562 leukemia): > 100 µM | TGI (NCI-H23 lung): > 100 µM | TGI (EKVX NSCLC): > 100 µM | TGI (RXF 393 renal): > 100 µM | TGI (OVCAR-5 ovarian): > 100 µM | TGI (MALME-3M melanoma): > 100 µM | TGI (DLD-1 colon): > 100 µM | TGI (CCRF-CEM leukemia): > 100 µM | TGI (RPMI-8226 leukemia): > 100 µM | TGI (OVCAR-8 ovarian): > 100 µM | TGI (TK-10 renal): > 100 µM | TGI (SF-295 CNS): > 100 µM | TGI (LXFL 529 NSCLC): > 100 µM | TGI (HOP-62 NSCLC): > 100 µM | TGI (SK-OV-3 ovarian): > 100 µM | TGI (IGROV1 ovarian): > 100 µM | TGI (LOX IMVI melanoma): > 100 µM
